According to patent publication US20060014801A1, “Prevention and treatment of cognitive impairment using (R)-(-)-5-methyl-1-nicotynoyl-2-pyrazoline (MNP) and analogs” (The Johns Hopkins University, priority 2002, published 2006):
Where two headings read alike, the source gives them in different places.

Columns and labels:
GLT1B = test: Western blot of GLT1B protein expression in hippocampus of young rats after 7 days s.c. MNP; format: in vivo, Long-Evans rats; settings: 50 mg/kg/day s.c. minipump
Procedure: Administration of MNP: Twelve young Long-Evans rats, weighing approximately 400-500 grams, received treatment with either vehicle (0.9% saline; n=6) or MNP (50 mg/kg/day; n=6). The rats were administered MNP and vehicle continuously for one week via an osmotic minipump (Alzet, model 2ML1) implanted subcutaneously on the back, slightly posterior to the scapulae. After 7 days of treatment, the rats were sacrificed, their brains were removed, the hippocampi dissected out, frozen on dry ice and sent for Western blot analysis. The implanted minipump was also removed to verify proper drug delivery by measuring residual volume.
Preparation of brain tissue; Hippocampi were homogenized in 2 ml sucrose buffer (20 mM Tris pH 7.4, 10% sucrose, complete protease inhibitor cocktail mini-tablets [Roche cat#1-836-153]) for 25 seconds (Omni 115V Tissue Homogenizer TH-115). SDS (at 2%) was immediately added to the homogenate, and the samples were sonicated (Branson Sonifier 250; 10 pulses each). Extracts were total cellular extracts solubilized in SDS and include both cytoplasmic and membrane-bound GLT1.
Western blot analysis: Immunoblotting was performed using a LICOR Odyssey based system which uses IRDye 800 and Alexa Fluor 680 labeled secondary antibodies and signal is detected by diode lasers sensitive to infrared emissions of different wavelength. […]

[1] = Pharmacokinetics of MNP in the rat (plasma, LC/MS/MS); format: in vivo, male Sprague-Dawley rats; settings: for concentration at 5 min / concentration at 15 min / concentration at 30 min / concentration at 60 min / concentration at 120 min / concentration at 180 min / concentration at 240 min / concentration at 480 min / concentration at 720 min / concentration at 1440 min: mean ± s.e.m., 3 rats, read-out: MNP plasma levels
Procedure: Pharmacokinetic experiments were conducted. MNP was dissolved in saline solution (0.9% NaCl) and administered to male Sprague-Dawley rats (weighing 250-315 grams) with vascular catheters surgically placed in both jugular veins (Charles River, Wilmington, Mass.). The catheter on the left jugular vein was used for intravenous infusion of 5 mg/kg MNP (in the animals that received the i.v. dosing), while the catheter on the right jugular vein was used for blood sample collection. Oral doses of MNP (50 and 200 mg/kg) were administered by oral gavage. […] The samples were collected in heparin-coated microtainers, spun down in a microcentrifuge (14,000 rpm for 7 minutes) to separate out the blood plasma and frozen until analyzed. Plasma levels were quantitated by LC/MS/MS analysis (Applied Biosystems/MDS SCIEX API 3000).
The pharmacokinetic parameters Cmax, tmax, area-under-the-curve (AUC), clearance, and half-life (t1/2) were calculated for oral doses of MNP (50 and 200 mg/kg) and are described in Table II. These parameters are compared to the intravenous dose (5 mg/kg) to determine the oral bioavailability (Foral) of MNP in the rat. […] The roughly 30-minute terminal half-life calculated for the intravenous dose of MNP (5 mg/kg) was similar to previously reported data (Umemura et al., Stroke, 1996; 27:1624-1628).

[2] = male, Sprague-Dawley, plasma, intravenous, 5 mg/kg i.v.
[3] = male, Sprague-Dawley, plasma, iv, 5 mg/kg i.v., approximate value
[4] = male, Sprague-Dawley, plasma, oral, 50 mg/kg p.o.
[5] = male, Sprague-Dawley, plasma, oral, 200 mg/kg p.o.
[6] = male, Sprague-Dawley, plasma, po, 50 mg/kg p.o., approximate value
[7] = male, Sprague-Dawley, plasma, po, 200 mg/kg p.o., approximate value

C[C@@H]1CC=NN1C(=O)c1cccnc1 [MNP, (R)-(−)-5-methyl-1-nicotinoyl-2-pyrazoline]
GLT1B immunoreactivity compared to vehicle controls (GLT1B): no difference
Time of secondary plasma peak ([1]; 50 mg/kg oral dose): about 8 hours
˜Clearance ([1]; 50 mg/kg p.o., approximate value, Clearance = Dose/AUC): ~4.8 mL/min
Plasma levels at 24 hours post-administration ([1]; 200 mg/kg oral dose): significant plasma levels
˜Clearance ([1]; 200 mg/kg p.o., approximate value, Clearance = Dose/AUC): ~7.8 mL/min
Oral bioavailability (in words) ([1]; based on AUC and Foral for both oral doses (50 and 200 mg/kg)): highly bioavailable
half-life ([1]; male, Sprague-Dawley, plasma, 5 mg/kg intravenous dose, read-out: Terminal half-life): ~30 min
concentration at 5 min [1, 2]: 6550 ± 32 ng/mL
concentration at 15 min [1, 2]: 4530 ± 60 ng/mL
concentration at 30 min [1, 2]: 2880 ± 95 ng/mL
concentration at 60 min [1, 2]: 1300 ± 75 ng/mL
concentration at 120 min [1, 2]: 272 ± 9 ng/mL
concentration at 180 min [1, 2]: 51 ± 3 ng/mL
concentration at 240 min [1, 2]: 13 ± 1 ng/mL
concentration at 480 min [1, 2]: 2 ± 1 ng/mL
concentration at 720 min [1, 2]: 3 ± 2 ng/mL
concentration at 1440 min [1, 2]: 2 ± 0.5 ng/mL
AUC [1, 3]: ~4220 ng·h/mL
Cmax [1, 3]: ~6550 ng/mL
Tmax [1, 3]: ~5 min
clearance ([1]; male, Sprague-Dawley, plasma, iv, 5 mg/kg i.v., approximate value, Clearance = Dose/AUC): ~5.6 mL/min
bioavailability ([1]; male, Sprague-Dawley, plasma, oral, 50 mg/kg p.o. vs 5 mg/kg i.v., effects of saturation and accumulation unknown, read-out: ˜Bioavailability (Foral; %)): ~119%
concentration at 5 min [1, 4]: 16000 ± 1720 ng/mL
concentration at 15 min [1, 4]: 16000 ± 933 ng/mL
concentration at 30 min [1, 4]: 13600 ± 1120 ng/mL
concentration at 60 min [1, 4]: 9980 ± 976 ng/mL
concentration at 120 min [1, 4]: 6140 ± 1980 ng/mL
concentration at 180 min [1, 4]: 4180 ± 1640 ng/mL
concentration at 240 min [1, 4]: 2470 ± 792 ng/mL
concentration at 480 min [1, 4]: 2850 ± 755 ng/mL
concentration at 720 min [1, 4]: 536 ± 327 ng/mL
concentration at 1440 min [1, 4]: 9 ± 6 ng/mL
bioavailability ([1]; male, Sprague-Dawley, plasma, oral, 200 mg/kg p.o. vs 5 mg/kg i.v., effects of saturation and accumulation unknown, read-out: ˜Bioavailability (Foral; %)): ~80%
concentration at 5 min [1, 5]: 50300 ± 2640 ng/mL
concentration at 15 min [1, 5]: 41300 ± 3210 ng/mL
concentration at 30 min [1, 5]: 36500 ± 5570 ng/mL
concentration at 60 min [1, 5]: 21600 ± 3790 ng/mL
concentration at 120 min [1, 5]: 11000 ± 2190 ng/mL
concentration at 180 min [1, 5]: 5700 ± 1970 ng/mL
concentration at 240 min [1, 5]: 5840 ± 1440 ng/mL
concentration at 480 min [1, 5]: 2920 ± 343 ng/mL
concentration at 720 min [1, 5]: 1160 ± 360 ng/mL
concentration at 1440 min [1, 5]: 6250 ± 2830 ng/mL
AUC [1, 6]: ~50200 ng·h/mL
Cmax [1, 6]: ~16000 ng/mL
Tmax [1, 6]: ~10 min
half-life ([1]; male, Sprague-Dawley, plasma, po, 50 mg/kg p.o., approximate value, read-out: ˜t1/2): ~150 min
AUC [1, 7]: ~134000 ng·h/mL
Cmax [1, 7]: ~50300 ng/mL
Tmax [1, 7]: ~5 min
half-life ([1]; male, Sprague-Dawley, plasma, po, 200 mg/kg p.o., approximate value, read-out: ˜t1/2): ~90 min
bioavailability ([1]; male, Sprague-Dawley, plasma, po, based on the results of Example 2, read-out: Oral bioavailability): ≤ 80%
Oral absorption ([1]; oral gavage, significant plasma levels at the 5-min time point): rapidly absorbed
